The results in this text go back to ChEMBL document CHEMBL5291721, “A preclinical secondary pharmacology resource illuminates target-adverse drug reaction associations of marketed drugs” (Nat Commun, 2023).

The target of assay [1] is T1, Alpha-2A adrenergic receptor (Homo sapiens, UniProt P08913).
T1 sequence (P08913 whole entry): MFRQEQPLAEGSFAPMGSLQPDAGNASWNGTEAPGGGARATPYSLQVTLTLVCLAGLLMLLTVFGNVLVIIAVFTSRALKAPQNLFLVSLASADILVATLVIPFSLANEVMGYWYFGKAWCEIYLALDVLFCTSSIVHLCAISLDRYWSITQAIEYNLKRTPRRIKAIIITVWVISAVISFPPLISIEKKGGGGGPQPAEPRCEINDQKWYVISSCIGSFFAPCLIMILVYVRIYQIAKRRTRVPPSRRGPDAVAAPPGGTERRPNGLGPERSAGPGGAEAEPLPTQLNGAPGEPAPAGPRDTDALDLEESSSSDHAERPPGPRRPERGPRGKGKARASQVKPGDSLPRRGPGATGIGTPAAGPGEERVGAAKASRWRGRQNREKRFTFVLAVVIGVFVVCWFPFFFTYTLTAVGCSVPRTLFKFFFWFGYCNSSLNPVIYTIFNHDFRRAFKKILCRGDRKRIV
In kind it is functional, cell-based.

The target of assay [2] is T2, Alpha-2C adrenergic receptor (Homo sapiens, UniProt P18825).
T2 sequence (P18825 whole entry): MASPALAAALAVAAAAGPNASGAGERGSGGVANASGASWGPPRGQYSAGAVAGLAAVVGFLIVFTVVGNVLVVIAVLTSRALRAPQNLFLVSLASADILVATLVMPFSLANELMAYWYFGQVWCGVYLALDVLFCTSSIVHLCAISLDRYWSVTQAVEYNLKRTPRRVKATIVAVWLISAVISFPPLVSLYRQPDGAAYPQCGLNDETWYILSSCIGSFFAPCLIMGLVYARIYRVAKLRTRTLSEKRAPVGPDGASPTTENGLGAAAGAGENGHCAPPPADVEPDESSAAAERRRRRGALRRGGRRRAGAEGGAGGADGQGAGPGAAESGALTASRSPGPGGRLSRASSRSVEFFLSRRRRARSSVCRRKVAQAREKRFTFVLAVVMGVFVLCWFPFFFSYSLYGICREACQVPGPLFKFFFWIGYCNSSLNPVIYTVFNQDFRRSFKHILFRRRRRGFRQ
In kind it is functional.

For a further assay, the target named is T3, B2 bradykinin receptor (Homo sapiens, UniProt P30411).
T3 sequence (P30411 whole entry): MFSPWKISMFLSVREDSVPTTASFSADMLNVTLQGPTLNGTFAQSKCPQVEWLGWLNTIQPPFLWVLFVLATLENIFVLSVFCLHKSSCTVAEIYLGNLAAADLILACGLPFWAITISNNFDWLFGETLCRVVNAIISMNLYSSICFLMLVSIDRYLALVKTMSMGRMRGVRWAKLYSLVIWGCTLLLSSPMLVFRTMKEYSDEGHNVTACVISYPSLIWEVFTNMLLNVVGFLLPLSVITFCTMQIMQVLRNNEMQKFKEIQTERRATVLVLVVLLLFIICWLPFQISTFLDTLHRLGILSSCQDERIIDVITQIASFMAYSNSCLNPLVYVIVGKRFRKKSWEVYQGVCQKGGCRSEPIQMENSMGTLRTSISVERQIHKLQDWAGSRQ

Assay [3] has as its target Neuronal acetylcholine receptor subunit alpha-4 (Homo sapiens, UniProt P43681).
The target in the next assay is D(1A) dopamine receptor (Homo sapiens, UniProt P21728). It counts as functional, cell-based.
D(1A) dopamine receptor, sequence (P21728 whole entry): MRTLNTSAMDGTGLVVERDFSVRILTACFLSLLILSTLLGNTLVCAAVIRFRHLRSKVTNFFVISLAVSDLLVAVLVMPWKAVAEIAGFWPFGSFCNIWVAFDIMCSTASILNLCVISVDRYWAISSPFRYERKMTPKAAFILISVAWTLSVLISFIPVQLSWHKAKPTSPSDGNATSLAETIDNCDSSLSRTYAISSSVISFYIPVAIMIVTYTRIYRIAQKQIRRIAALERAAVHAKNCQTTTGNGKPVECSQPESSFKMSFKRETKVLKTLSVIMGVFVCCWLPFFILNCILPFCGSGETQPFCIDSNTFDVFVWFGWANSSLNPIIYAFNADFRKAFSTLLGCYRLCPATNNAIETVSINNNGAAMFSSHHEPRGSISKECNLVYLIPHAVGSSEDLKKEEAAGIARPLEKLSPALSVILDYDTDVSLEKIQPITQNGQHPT
In assay [4] the target is 5-hydroxytryptamine receptor 2B (Homo sapiens, UniProt P41595). It counts as functional, cell-based.
5-hydroxytryptamine receptor 2B, sequence (P41595 whole entry): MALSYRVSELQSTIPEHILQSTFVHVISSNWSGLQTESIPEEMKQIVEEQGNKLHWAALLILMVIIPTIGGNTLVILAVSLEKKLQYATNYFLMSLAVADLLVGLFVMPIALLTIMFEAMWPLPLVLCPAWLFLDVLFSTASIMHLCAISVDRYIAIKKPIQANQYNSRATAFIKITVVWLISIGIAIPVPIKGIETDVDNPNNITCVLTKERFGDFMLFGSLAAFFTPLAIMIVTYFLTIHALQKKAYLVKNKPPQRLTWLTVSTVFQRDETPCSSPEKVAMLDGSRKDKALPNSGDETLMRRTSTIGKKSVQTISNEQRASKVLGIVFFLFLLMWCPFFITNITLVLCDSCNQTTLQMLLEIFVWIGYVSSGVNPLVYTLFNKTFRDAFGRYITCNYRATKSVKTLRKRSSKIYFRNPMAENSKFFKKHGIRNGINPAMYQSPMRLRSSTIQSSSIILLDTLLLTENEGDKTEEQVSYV
A further assay concerns the target Melanocortin receptor 3 (Homo sapiens, UniProt P41968).
The target in another assay is T4, Progesterone receptor (Homo sapiens, UniProt P06401).
T4 sequence (P06401 whole entry): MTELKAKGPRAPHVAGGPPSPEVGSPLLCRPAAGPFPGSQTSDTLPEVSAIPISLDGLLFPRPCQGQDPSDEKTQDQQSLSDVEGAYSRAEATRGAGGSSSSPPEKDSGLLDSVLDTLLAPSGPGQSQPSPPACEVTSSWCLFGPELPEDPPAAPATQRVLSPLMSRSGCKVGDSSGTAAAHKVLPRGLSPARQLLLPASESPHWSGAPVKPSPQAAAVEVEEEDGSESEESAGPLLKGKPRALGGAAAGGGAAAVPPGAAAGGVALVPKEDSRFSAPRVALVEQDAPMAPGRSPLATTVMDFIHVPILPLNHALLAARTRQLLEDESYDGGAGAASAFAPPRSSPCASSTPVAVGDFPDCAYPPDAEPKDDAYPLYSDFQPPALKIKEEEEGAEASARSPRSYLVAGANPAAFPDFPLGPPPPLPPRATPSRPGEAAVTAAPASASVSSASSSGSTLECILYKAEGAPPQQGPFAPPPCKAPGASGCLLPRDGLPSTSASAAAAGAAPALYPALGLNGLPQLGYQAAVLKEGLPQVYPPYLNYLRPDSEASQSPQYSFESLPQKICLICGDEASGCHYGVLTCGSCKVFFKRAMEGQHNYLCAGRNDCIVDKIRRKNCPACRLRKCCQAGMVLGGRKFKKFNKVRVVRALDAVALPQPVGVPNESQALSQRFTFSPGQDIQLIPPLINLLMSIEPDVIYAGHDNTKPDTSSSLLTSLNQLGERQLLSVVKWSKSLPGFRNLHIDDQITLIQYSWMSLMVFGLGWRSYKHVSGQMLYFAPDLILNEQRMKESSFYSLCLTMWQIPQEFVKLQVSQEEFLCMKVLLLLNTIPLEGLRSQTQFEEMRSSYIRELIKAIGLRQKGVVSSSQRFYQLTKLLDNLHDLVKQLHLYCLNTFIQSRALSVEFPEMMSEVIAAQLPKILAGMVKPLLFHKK
In kind it is functional.

The target in a further assay is T5, Thromboxane A2 receptor (Homo sapiens, UniProt P21731).
T5 sequence (P21731 whole entry): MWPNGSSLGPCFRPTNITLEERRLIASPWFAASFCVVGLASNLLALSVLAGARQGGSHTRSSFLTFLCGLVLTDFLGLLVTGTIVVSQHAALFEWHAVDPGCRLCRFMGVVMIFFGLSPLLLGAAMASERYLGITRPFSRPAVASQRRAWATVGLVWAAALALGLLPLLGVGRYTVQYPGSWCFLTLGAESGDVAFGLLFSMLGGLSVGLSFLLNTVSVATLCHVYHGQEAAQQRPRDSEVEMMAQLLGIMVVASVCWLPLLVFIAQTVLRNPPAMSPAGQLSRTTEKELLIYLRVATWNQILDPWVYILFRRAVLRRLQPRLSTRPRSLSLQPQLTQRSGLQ

Assay [5] deals with Sodium-dependent noradrenaline transporter (Homo sapiens, UniProt P23975).
Sodium-dependent noradrenaline transporter, sequence (P23975 whole entry): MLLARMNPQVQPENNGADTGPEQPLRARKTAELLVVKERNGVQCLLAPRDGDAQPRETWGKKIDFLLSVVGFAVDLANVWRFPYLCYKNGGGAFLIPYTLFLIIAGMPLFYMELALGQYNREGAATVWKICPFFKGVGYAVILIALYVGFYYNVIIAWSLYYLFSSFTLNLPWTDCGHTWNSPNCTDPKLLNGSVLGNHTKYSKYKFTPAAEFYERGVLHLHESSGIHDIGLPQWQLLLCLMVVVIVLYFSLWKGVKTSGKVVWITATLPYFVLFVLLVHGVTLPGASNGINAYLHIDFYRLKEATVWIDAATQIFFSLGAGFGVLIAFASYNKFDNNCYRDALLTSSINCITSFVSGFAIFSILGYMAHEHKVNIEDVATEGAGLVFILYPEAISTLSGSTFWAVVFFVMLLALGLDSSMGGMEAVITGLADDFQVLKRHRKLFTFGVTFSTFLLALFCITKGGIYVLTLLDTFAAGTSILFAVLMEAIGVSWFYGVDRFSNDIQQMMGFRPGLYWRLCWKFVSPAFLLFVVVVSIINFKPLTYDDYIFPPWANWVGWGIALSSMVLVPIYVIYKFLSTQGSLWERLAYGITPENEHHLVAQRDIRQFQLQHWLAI
Also: assay procedure not described here.

Neuronal acetylcholine receptor subunit alpha-4, sequence (P43681 whole entry): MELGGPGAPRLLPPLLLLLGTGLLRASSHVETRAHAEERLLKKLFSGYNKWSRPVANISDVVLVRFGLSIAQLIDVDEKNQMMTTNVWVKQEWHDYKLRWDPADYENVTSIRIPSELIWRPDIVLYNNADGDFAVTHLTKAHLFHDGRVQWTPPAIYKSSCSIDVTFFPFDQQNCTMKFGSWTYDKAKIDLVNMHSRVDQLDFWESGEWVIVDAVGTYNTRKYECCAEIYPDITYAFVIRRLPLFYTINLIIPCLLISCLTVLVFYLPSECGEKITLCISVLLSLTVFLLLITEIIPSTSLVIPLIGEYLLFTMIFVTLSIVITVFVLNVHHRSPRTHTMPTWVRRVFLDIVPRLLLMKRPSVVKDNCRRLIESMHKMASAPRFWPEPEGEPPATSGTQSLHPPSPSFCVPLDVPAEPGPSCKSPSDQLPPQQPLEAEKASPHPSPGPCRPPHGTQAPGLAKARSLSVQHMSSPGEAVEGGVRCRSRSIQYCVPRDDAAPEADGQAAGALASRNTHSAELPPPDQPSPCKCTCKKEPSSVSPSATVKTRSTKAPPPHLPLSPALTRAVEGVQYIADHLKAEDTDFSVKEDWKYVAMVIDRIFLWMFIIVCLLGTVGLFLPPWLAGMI
Melanocortin receptor 3, sequence (P41968 whole entry): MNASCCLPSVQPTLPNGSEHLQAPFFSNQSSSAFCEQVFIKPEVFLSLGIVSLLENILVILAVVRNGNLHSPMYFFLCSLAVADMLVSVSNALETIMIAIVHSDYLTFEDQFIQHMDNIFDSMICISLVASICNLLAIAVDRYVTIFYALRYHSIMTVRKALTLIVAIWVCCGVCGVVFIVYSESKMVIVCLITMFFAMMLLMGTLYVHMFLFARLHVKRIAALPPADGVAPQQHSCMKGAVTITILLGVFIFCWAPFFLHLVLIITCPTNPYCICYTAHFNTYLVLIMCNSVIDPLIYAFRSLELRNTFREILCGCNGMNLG

Consider `C[N+]12CCC(CC1)C(OC(=O)C(O)(c1ccccc1)c1ccccc1)C2` (stereo not drawn), for which the half-maximal activity concentration (AC50) (in [1]; in assay [2]; at B2 bradykinin receptor; in assay [3]; on D(1A) dopamine receptor; in [4]) was over 30 µM throughout. In addition, the AC50 (on Melanocortin receptor 3; on Progesterone receptor; at Thromboxane A2 receptor; in assay [5]) was over 30 µM in each case.
As for `CO/N=C(\C(=O)N[C@@H]1C(=O)N2C(C(=O)O)=CCS[C@H]12)c1csc(N)n1` [CEFTIZOXIME], the AC50 was over 30 µM in assay [1]; over 30 µM in assay [2]; over 10 µM on B2 bradykinin receptor; over 30 µM in assay [3]; over 30 µM at D(1A) dopamine receptor; over 30 µM in assay [4]. Besides, the AC50 (on Melanocortin receptor 3; on Progesterone receptor; in [5]) was over 30 µM throughout.
As for `CO/N=C(\C(=O)N[C@@H]1C(=O)N2C(C(=O)O)=C(CSc3nc(=O)c(=O)[nH]n3C)CS[C@H]12)c1csc(N)n1` [CEFTRIAXONE], the AC50 (in assay [1]; in assay [2]; at B2 bradykinin receptor; in assay [3]; on D(1A) dopamine receptor; in assay [4]) was over 30 µM throughout. Moreover, the AC50 (on Melanocortin receptor 3; on Progesterone receptor; in assay [5]) was over 30 µM in each case.
Turning to `CCc1cc2c(s1)-n1c(C)nnc1CN=C2c1ccccc1Cl` [ETIZOLAM], the AC50 (in assay [1]; in assay [2]; on B2 bradykinin receptor; in assay [3]; on D(1A) dopamine receptor; in assay [4]) was over 30 µM each time. For the same compound, the AC50 (on Melanocortin receptor 3; on Progesterone receptor; at Thromboxane A2 receptor; in assay [5]) was over 30 µM each time.
For the compound `CCOC(=O)c1ncn2c1CN(C)C(=O)c1cc(F)ccc1-2` [FLUMAZENIL], the half-maximal activity concentration (AC50) (in assay [1]; in [2]; at B2 bradykinin receptor; in [3]; on D(1A) dopamine receptor; in [4]) was over 30 µM in each case. The AC50 (at Melanocortin receptor 3; at Progesterone receptor; at Thromboxane A2 receptor; in assay [5]) was over 30 µM each time.
In the case of `c1ccc(C2(N3CCCCC3)CCCCC2)cc1` [PHENCYCLIDINE], the AC50 (in assay [1]; in [2]; on B2 bradykinin receptor; in assay [3]; at D(1A) dopamine receptor; in assay [4]) was over 30 µM in each case. The AC50 at Melanocortin receptor 3 was over 30 µM; at Progesterone receptor, over 30 µM; at Thromboxane A2 receptor, over 30 µM; in [5], 12 µM.
`CCCCCCCC(=O)CC[C@@H]1[C@@H](C/C=C\CCCC(=O)OC(C)C)[C@@H](O)C[C@H]1O` [UNOPROSTONE ISOPROPYL]: the half-maximal activity concentration (AC50) in assay [2] is 13 µM; in assay [4] it was 0.89 µM; on Melanocortin receptor 3 it was 27 µM; on Progesterone receptor, over 30 µM; in assay [5] it was 7.2 µM.
Consider `CC(C(=O)O)c1ccc2c(c1)CC(=O)c1ccccc1S2` (stereo not drawn) [ZALTOPROFEN], for which the AC50 (in assay [1]; in [2]; on B2 bradykinin receptor; in [3]; on D(1A) dopamine receptor; in assay [4]) was over 30 µM each time. Further, the AC50 (at Melanocortin receptor 3; at Progesterone receptor; at Thromboxane A2 receptor; in [5]) was over 30 µM each time.

By AC50 is commonly meant the concentration giving half of the maximal activity seen. A high value points to activity only at high concentration.
